The values that follow are results of earlier work, collected in patent US5855881A, “Mammalian alcohol dehydrogenase and aldehyde dehydrogenase production in plants” (priority 1996, dated 1999).

The target in series [1] is human class IV σ-ADH (stomach alcohol dehydrogenase) (Homo sapiens, UniProt P40394).
The target in series [2] is T1, human cytosolic ALDH1 (aldehyde dehydrogenase) (Homo sapiens, UniProt P00352).
T1 construct: at least five ALDHs that have been purified and characterized from human liver or stomach; host or cells: purified from human liver or stomach (Yin et al. 1993)
T1 sequence (P00352 1-501): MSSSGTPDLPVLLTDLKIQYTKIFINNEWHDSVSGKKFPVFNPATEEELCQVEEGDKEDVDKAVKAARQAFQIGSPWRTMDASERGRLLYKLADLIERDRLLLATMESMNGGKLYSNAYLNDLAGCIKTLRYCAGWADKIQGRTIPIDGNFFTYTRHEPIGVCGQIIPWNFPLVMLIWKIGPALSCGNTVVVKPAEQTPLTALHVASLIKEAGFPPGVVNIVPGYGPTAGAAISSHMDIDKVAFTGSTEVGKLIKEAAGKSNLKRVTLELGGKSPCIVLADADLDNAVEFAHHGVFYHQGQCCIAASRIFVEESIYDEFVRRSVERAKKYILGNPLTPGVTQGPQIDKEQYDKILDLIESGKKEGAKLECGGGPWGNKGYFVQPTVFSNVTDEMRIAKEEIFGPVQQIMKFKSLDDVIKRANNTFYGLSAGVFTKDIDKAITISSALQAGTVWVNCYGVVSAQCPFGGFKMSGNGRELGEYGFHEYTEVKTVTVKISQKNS
The following applies: read-out: Km toward acetaldehyde.

Series [3] deals with T2, human mitochondrial ALDH2 (aldehyde dehydrogenase) (Homo sapiens, UniProt P05091).
T2 construct: at least five ALDHs that have been purified and characterized from human liver or stomach; host or cells: purified from human liver or stomach (Yin et al. 1993)
T2 sequence (P05091 18-517): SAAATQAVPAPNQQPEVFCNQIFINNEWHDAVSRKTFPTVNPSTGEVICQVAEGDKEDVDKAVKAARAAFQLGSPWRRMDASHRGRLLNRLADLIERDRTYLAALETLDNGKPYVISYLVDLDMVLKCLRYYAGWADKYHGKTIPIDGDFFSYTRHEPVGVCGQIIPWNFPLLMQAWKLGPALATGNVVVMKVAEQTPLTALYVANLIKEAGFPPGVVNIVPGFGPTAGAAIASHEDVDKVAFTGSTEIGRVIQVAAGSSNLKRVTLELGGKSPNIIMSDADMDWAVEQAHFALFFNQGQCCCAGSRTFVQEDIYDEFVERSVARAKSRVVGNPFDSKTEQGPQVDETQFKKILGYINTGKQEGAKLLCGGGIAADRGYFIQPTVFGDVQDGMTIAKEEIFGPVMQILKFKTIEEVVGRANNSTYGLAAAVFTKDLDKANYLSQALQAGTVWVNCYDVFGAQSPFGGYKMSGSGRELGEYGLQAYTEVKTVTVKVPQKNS
The following applies: read-out: Km toward acetaldehyde.

In series [4] the target is T3, human γ-aminobutyraldehyde dehydrogenase (GABALDH) (Homo sapiens, UniProt P49189).
T3 construct: γ-aminobutyraldehyde dehydrogenase has been purified from liver; host or cells: purified from human liver (Yin et al. 1993)
The following applies: read-out: Km toward acetaldehyde.

The target in series [5] is T4, human ALDH3 (aldehyde dehydrogenase) (Homo sapiens, UniProt P30838).
T4 construct: at least five ALDHs that have been purified and characterized from human liver or stomach; host or cells: purified from human liver or stomach (Yin et al. 1993)
T4 sequence (P30838 1-453): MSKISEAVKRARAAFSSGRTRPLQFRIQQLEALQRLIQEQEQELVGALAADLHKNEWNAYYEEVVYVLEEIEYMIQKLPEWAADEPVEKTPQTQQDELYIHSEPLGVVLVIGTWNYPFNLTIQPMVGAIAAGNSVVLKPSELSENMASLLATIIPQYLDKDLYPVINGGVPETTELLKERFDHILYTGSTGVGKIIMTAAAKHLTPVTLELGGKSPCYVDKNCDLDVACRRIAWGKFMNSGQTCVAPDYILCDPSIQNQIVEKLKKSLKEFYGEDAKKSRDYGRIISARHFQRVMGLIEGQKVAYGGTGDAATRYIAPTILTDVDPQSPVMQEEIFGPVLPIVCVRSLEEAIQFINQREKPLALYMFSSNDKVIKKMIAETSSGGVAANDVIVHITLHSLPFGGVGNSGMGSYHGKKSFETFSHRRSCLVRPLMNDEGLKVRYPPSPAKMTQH
The following applies: read-out: Km toward acetaldehyde.

Series [6] concerns the target T5, human ALDH4 (glutamic γ semialdehyde dehydrogenase, GSDH) (Homo sapiens, UniProt P30038).
T5 construct: at least five ALDHs that have been purified and characterized from human liver or stomach; host or cells: purified from human liver or stomach (Yin et al. 1993)
T5 sequence (P30038 25-563): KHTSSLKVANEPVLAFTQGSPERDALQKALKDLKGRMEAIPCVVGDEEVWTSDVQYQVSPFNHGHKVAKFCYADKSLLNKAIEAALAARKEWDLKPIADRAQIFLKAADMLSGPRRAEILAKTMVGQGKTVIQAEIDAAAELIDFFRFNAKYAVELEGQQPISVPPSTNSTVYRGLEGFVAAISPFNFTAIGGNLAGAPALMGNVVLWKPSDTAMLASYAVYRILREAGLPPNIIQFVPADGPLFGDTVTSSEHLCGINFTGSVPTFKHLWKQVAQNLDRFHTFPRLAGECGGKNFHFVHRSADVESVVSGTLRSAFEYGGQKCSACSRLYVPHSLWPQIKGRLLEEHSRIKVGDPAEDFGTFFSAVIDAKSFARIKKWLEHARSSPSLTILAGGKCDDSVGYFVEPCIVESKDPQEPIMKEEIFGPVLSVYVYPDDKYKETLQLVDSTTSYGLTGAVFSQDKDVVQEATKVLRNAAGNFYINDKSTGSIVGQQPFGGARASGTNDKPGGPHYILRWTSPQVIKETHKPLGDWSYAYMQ
The following applies: read-out: Km toward acetaldehyde.

Chain of human class IV σ-ADH (stomach alcohol dehydrogenase) (P40394 14-386 limits assumed): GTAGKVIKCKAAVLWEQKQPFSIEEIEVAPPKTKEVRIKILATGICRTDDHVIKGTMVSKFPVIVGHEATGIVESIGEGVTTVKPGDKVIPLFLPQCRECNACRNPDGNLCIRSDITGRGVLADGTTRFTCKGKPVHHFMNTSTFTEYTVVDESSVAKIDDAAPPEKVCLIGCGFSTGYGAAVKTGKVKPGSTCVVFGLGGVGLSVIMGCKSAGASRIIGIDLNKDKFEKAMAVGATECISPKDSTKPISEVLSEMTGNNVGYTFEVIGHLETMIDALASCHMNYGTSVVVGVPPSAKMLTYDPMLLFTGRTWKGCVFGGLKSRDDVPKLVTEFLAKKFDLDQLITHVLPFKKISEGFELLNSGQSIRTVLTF
T3 sequence (P49189 whole entry): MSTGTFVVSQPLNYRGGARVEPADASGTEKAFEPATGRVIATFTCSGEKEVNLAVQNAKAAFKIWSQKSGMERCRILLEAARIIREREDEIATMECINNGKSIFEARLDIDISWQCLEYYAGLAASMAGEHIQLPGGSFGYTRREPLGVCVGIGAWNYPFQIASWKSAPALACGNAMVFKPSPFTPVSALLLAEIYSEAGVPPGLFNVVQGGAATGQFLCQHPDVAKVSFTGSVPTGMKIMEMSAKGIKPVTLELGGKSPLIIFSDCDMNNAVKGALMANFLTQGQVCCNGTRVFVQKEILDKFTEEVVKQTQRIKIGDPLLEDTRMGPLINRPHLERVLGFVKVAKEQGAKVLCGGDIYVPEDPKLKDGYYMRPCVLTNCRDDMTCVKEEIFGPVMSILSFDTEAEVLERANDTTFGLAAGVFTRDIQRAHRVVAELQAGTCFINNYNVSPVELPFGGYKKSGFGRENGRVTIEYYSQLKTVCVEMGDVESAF

`CCO` [ethanol]: the “kcat for ethanol oxidation” value in series [1] (enzyme isolated from human stomach tissue) was 16.67 to 25 s⁻¹. For the same compound, the “kcat value for ethanol” value in series [1] (pH 7.5) is listed as “about 1000”. The Km in series [1] (read-out: Km for ethanol, enzyme isolated from human stomach tissue) was ~41000 µM.
Regarding `CC=O` [acetaldehyde], the Km is 30 µM in series [2]; 3 µM in series [3]; 50 µM in series [4]; 83000 µM in series [5]; 5000 µM in series [6].
